The values that follow come from paper PMC7587962, “Evaluation of Cytotoxicity and α-Glucosidase Inhibitory Activity of Amide and Polyamino-Derivatives of Lupane Triterpenoids” (Molecules, 2020).

Assay [1] has as its system HCC-2998. Also noted: method as in PMID 25405285. The note with it: standard drugs used by NCI as control; cited from earlier work.
Assay [2] relates to EKVX. Also noted: method as in PMID 25405285. The note with it: standard drugs used by NCI as control; cited from earlier work.
The subject of assay [3] is HOP-62. The arrangement: method as in PMID 25405285. The note with it: standard drugs used by NCI as control; cited from earlier work.
The test system of assay [4] is SF-295. Also noted: method as in PMID 25405285. As to conditions: standard drugs used by NCI as control; cited from earlier work.
In assay [5] the test system is SF-268. Also noted: method as in PMID 25405285. The note with it: standard drugs used by NCI as control; cited from earlier work.
The test system of assay [6] is HOP-92. Also noted: method as in PMID 25405285. The note with it: standard drugs used by NCI as control; cited from earlier work.
Assay [7] has as its system U251. The arrangement: method as in PMID 25405285. The note with it: standard drugs used by NCI as control; cited from earlier work.
Assay [8] concerns NCI/ADR-RES. The arrangement: method as in PMID 25405285. As to conditions: standard drugs used by NCI as control; cited from earlier work.
Assay [9] deals with ACHN. The arrangement: method as in PMID 25405285. As to conditions: standard drugs used by NCI as control; cited from earlier work.
Assay [10] concerns IGROV1. Also noted: method as in PMID 25405285. The note with it: standard drugs used by NCI as control; cited from earlier work.
Assay [11] concerns CCRF-CEM. Also noted: method as in PMID 25405285. As to conditions: standard drugs used by NCI as control; cited from earlier work.
For assay [12], the system named is A498. Also noted: method as in PMID 25405285. The note with it: standard drugs used by NCI as control; cited from earlier work.
The test system of assay [13] is NCI-H460. The arrangement: method as in PMID 25405285. The note with it: standard drugs used by NCI as control; cited from earlier work.
Assay [14] has as its system PC-3. Also noted: method as in PMID 25405285. As to conditions: standard drugs used by NCI as control; cited from earlier work.
The subject of assay [15] is RPMI-8226. Also noted: method as in PMID 25405285. As to conditions: standard drugs used by NCI as control; cited from earlier work.
Assay [16] deals with HT29. Also noted: method as in PMID 25405285. As to conditions: standard drugs used by NCI as control; cited from earlier work.
Assay [17] relates to BT-549. Also noted: method as in PMID 25405285. As to conditions: standard drugs used by NCI as control; cited from earlier work.
The test system of assay [18] is MCF7. Also noted: method as in PMID 25405285. As to conditions: standard drugs used by NCI as control; cited from earlier work.
Assay [19] concerns SF-539. The arrangement: method as in PMID 25405285. The note with it: standard drugs used by NCI as control; cited from earlier work.
The subject of assay [20] is MOLT-4. Also noted: method as in PMID 25405285. The note with it: standard drugs used by NCI as control; cited from earlier work.
In assay [21] the test system is UO-31. The arrangement: method as in PMID 25405285. As to conditions: standard drugs used by NCI as control; cited from earlier work.
Assay [22] deals with MALME-3M. Also noted: method as in PMID 25405285. As to conditions: standard drugs used by NCI as control; cited from earlier work.
The test system of assay [23] is SR. The arrangement: method as in PMID 25405285. As to conditions: standard drugs used by NCI as control; cited from earlier work.
Assay [24] deals with UACC-62. Also noted: method as in PMID 25405285. The note with it: standard drugs used by NCI as control; cited from earlier work.
Assay [25] has as its system COLO 205. The arrangement: method as in PMID 25405285. As to conditions: standard drugs used by NCI as control; cited from earlier work.
Assay [26] has as its system HS 578T. The arrangement: method as in PMID 25405285. As to conditions: standard drugs used by NCI as control; cited from earlier work.
The subject of assay [27] is DU-145. The arrangement: method as in PMID 25405285. As to conditions: standard drugs used by NCI as control; cited from earlier work.
Assay [28] concerns KM12. The arrangement: method as in PMID 25405285. As to conditions: standard drugs used by NCI as control; cited from earlier work.
In assay [29] the test system is SW-620. The arrangement: method as in PMID 25405285. As to conditions: standard drugs used by NCI as control; cited from earlier work.
In assay [30] the test system is Rat Liver ER Neutral α-Glucosidase. The assay is described as follows: Endoplasmic reticulum α-glucosidase activity assay. The assay is classed as biochemical. The text has this: Betulinic acid inhibits yeast α-glucosidase activity and interferes with N-linked glycan modifications to cell-surface intercellular adhesion molecule-1 (ICAM-1) in human lung carcinoma A549 cells in a similar manner to castanospermine, an inhibitor of endoplasmic reticulum α-glucosidases I and II [66]. […] Taken together, these considerations prompted us to evaluate a series of lupanes with amide function or polyamine chain 11, 12, 16, 18, and 22–26 for α-glucosidase inhibition. Initially, they were screened against α-glucosidase of S. cerevisiae as an accessible and high-throughput model. Confirmatory experiments were performed on isolated rough endoplasmic reticulum vesicles from rat liver, which contain neutral α-glucosidases I and II in a membrane-bound form.
Endoplasmic reticulum was isolated from hepatocytes of decapitated male Sprague-Dawley rats, which were starved overnight and sacrificed the next morning. All experiments were approved by Volgograd regional ethic committee. The whole procedure was performed at 4 °C. In brief, a fresh tissue sample from an animal was washed twice with 10 mL of PBS to remove residual blood. The tissue was placed on a paper towel in order to absorb excess liquid and blood clots, if present. It was cut further into small pieces (1.5–2 cm) and washed once more. […] Homogenate was centrifuged at 1000× g for 10 min at 4 °C. After removal of the floating lipid layer by aspiration, supernatant was separated and centrifuged at 12,000× g for 15 min. at 4 °C. The supernatant fraction, which is the post mitochondrial fraction (PMF), was used for isolation of rough endoplasmic reticulum (RER) enriched microsomes by precipitation with 8 mM CaCl2 added dropwise. The final concentration of CaCl2 was 7 mM. Resulting sample was centrifuged at 8000 g for 10 min. at 4 °C. The supernatant was discarded, and the pellet was suspended in isotonic extraction buffer (0.3 mL of buffer for each g of original tissue). The suspension was homogenized completely to afford RER enriched microsomes. In a 96-well flat transparent plate 25 µL of the isolated RER microsomes were incubated with 50 µL of test compounds in 67 mM PBS (pH 6.8) at 37 °C for 10 min. Then, p-nitrophenyl-α-D-glucopyranoside (Sigma #N1377, St. Louis, MO, USA) was added to 1 mM final concentration and increase in absorbance was recorded for 42 min at 405 nm wavelength with Infinite M200 PRO microplate reader (Tecan, Austria). Concentration of RER microsomes was adjusted to achieve an increase in optical density of ~0.2 in control samples after 30 min. of incubation. Test compounds were prepared as described above for the yeast α-glucosidase assay.

Consider `COc1cccc2c1C(=O)c1c(O)c3c(c(O)c1C2=O)C[C@@](O)(C(=O)CO)C[C@@H]3O[C@H]1C[C@H](N)[C@H](O)[C@H](C)O1` [DRB, doxorubicin], for which the GI50 (commonly the concentration giving 50% growth inhibition) in [1] is 0.26 µM; in assay [2] it was 0.41 µM; in assay [3], 0.07 µM; in assay [4], 0.1 µM; in assay [5] it was 0.1 µM; in assay [6] it was 0.1 µM. Also, the GI50 was 0.04 µM in assay [7]; 7.16 µM in assay [8]; 0.08 µM in assay [9]; 0.17 µM in [10]; 0.08 µM in assay [11]; 0.1 µM in assay [12]. The GI50 in assay [13] was 0.02 µM; in [14] it was 0.32 µM; in [15], 0.08 µM; in assay [16] it was 0.12 µM; in [17], 0.23 µM; in assay [18] it was 0.03 µM. The concentration for 50% growth inhibition (GI50) in [19] is 0.12 µM; in assay [20], 0.03 µM; in assay [21], 0.49 µM; in assay [22] it was 0.12 µM; in assay [23], 0.03 µM; in assay [24] it was 0.12 µM. The GI50 in [25] was 0.18 µM; in assay [26] it was 0.33 µM; in [27], 0.11 µM; in [28], 0.27 µM; in assay [29] it was 0.09 µM.

For the compound `C=C(C)[C@@H]1CC[C@]2(C(=O)NCCNCCNCCN)CC[C@]3(C)[C@H](CC[C@@H]4[C@@]5(C)CCC(=O)C(C)(C)[C@@H]5CC[C@]43C)[C@@H]12` [Compound 11], the “Rat Liver ER Neutral α-Glucosidase Inhibition, m ± SD” value in assay [30] (10 μM) is recorded as 15.03 ± 8.98%; in [30] (100 μM) it was 43.60 ± 7.98 %.
